Results published in US20260151384A1, “ISOQUINOLINE DERIVATIVES AS PROTEIN DEGRADERS, E7 DEGRADERS, ANTIVIRALS, TUMOR THERAPEUTICS AND IMMUNE SUPPRESSIVES” (priority 2022, published 2026).

Tests used:
SARS-CoV-2 [1] = assay: microbe, parasite or virus in culture; format: cell-based; details: 1.25 μM, n4
[2] = test system: p38, JNK1, ERK1/2, PKC, or Src-like kinases; details: cited from earlier work
4E-BP1 = assay: Western blot of 4E-BP1 phosphorylation in CaSki cells; format: cell-based, human; details: 6 h, 10 μM & 5 μM
From the text: Thus, clearly distinguishing downstream-effects in comparison to a general TOR Kinase inhibition.

SARS-CoV-2 [3] = assay: SARS-CoV-2 antiviral activity, mono treatment or combinations, Vero E6 cells (Test 18); format: cell-based; details: 10, 5, 2.5, 1.25, 0.625 μM; FIG. 10
From the text: SARV-CoV-2 antiviral activity of VSP035 from mono treatment, or in combination with various pharmacological drug substances at various concentrations shown by the bars from left to the right. Y axis % Inhibition. Due to lethal concentrations for Vero E6 cells, dose dependency is visible at non-lethal doses only (median of multiple experiments n4 is shown); Concentrations (left to right) Compounds and respective assay concentrations in μM are, “constant” means same concentration for the series (X axis, numbers for series): (FIG. 10).

HPV16 E7 protein = HPV16 E7 protein (Human papillomavirus type 16, UniProt P03129); assay: Western blot of E7 steady state level in CaSki cells; format: cell-based; details: 10 μM, up to 24 hours
Method: Reagents for Extract preparation and Western Blotting: Extraction Buffer: 2.5× (Tris 0.25M pH6.8, Glycerol 50%, SDS 10%), Gels: 4-12% gradient gels (Bolt® 4-12% Bis-Tris Plus Gel). MES Buffer: 50 mM MES, 50 mM Tris Base, 0.1% SDS, 1 mM EDTA, pH 7.3, Blotting membrane: Nitrocelulose 0.2 μm (Whatman Protran #10401394), 3MM filter paper (e.g. Whatman 3MM Chr, #3030917). Western Detection Reagents: WB Wash Buffer 1× (TBET): 20 mM Tris, 150 mM NaCl, 0.125% Tween20, pH 7.8; skim-milk powder (less than 0.15% fat content). Phosphate buffered saline (PBS) 1×: prepared as 1 L add 8 g sodium chloride (NaCl), 0.2 g potassium chloride (KCl), 1.44 g sodium phosphate, dibasic (Na2HPO4) and 0.24 g potassium phosphate, monobasic (KH2PO4) to 1 L dH2O, pH adjusted to 7.2.
B) For cells in cell culture the following procedure for the preparation of a total cell extract is used. Freshly seeded cells are grown for 24 hours to obtain 65-75% confluency (corresponds for CaSki cells to a plating of approx. 2×10^6 cells/10 cm Ø cell culture dish). Cell culture dishes with medium are out on ice for 5 minutes. […]
Dilute secondary anti-mouse HRP antibody in WB Blocking Buffer according to manufacturer instruction (e.g. CST Anti mouse IgG HRP-linked Ab, #7076, 1:3000). […] The membranes are developed using standard chemo luminescence (ECL) detection systems following imaging with Licor or Viber devices. […]

[4] = Pharmacokinetics of VSP034 and VSP035, oral liposomal formulation; format: in vivo, female Sprague-Dawley rats; details: 100 mg/kg oral gavage; Student's t test, significant
Method: The pharmacokinetic parameters of VSP034 and VSP035 encapsulated as liposomal formulation were assessed after the administration of a single 100 mg/kg dose by oral gavage to 6 female Sprague-Dawley rats weighting 250 grams (±25g). The animals were randomized into two experimental groups (Groups 1 and 2), each composed of 3 rats. Rats belonging to group 1 were administered with VSP034 and rats belonging to group 2 were administered with VSP035. Blood was collected at baseline and 15 min, 30 min, 1, 2, 4, 6, 8, and 24 hours after the oral gavage. The rats were sacrificed 24 hours after the dosing. Blood was collected at each timepoint from the caudal vein, with the exception of the last collection (24 hours), which was performed by intracardiac puncture at the moment of sacrifice under isoflurane anesthesia. The animals were weighted immediately before the dosing to assess the proper dose and carefully monitored during the experiment. […] The main pharmacokinetic parameters (half-life, t1/2; time to maximum plasma concentration, Tmax; maximum plasma concentration, Cmax, AUC Extrapolated to Infinity, AUC0-inf; mean residence time, MRT; Apparent Volume of Distribution During Terminal Phase, VZ/F; and apparent oral clearance, CL/F) were calculated from the coefficients and exponents of the best-fits by using standard formulae.

PDL-1 = assay: Western blot of PDL-1 in CaSki cells; format: cell-based, human; details: 4 and 8 hours, dose dependent
Method: 24 h after seeding, cells were treated with VSP035, cycloheximide (CHX) and/or MG132 protasome inhibitor as indicated. Cells were harvested for analysis for BY WB. […] In particular, faster migrating band abundancy was regulated by proteasome inhibitor MG132 and the protein was destabilized in the presence of CHX.

SARS-CoV-2 [5] = format: cell-based

Chain of HPV16 E7 protein (P03129 whole entry): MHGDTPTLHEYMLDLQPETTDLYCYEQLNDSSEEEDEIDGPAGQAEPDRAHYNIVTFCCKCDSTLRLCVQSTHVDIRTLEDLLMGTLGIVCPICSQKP

SMILES | % Inhibition of SARV-CoV-2 virus activity (SARS-CoV-2 [1]) [%] | inhibitory activity against p38, JNK1, ERK1/2, PKC, or Src-like kinases [2] | phosphorylation state of 4E-BP1 (4E-BP1) | antiviral activity as single agent (SARS-CoV-2 [3]) | HPV 16 E7 protein degradation time course (western blot) (HPV16 E7 protein) | AUC higher than that of VSP034 [4] [fold] | regulation of PDL-1 (western blot) (PDL-1) | inhibition (SARS-CoV-2 [5]) [%]
Nc1ncnc2n[nH]c(Nc3ccc(F)cc3)c12 [CGP57380] | 17.71 | no inhibitory activity |  |  |  |  |  | 
CN1CCC(CN2C(=O)c3ccccc3[C@H](C(=O)Nc3cccc(N4CCN(C)CC4)c3)[C@H]2c2ccc(C(F)(F)F)cc2)CC1 [VSP035, (3S,4S)—N-[3-(4-methylpiperazin-1-yl)phenyl]-2-[(1-methylpiperidin-4-yl)methyl]-1-oxo-3-[4-(trifluoromethyl)phenyl]-1,2,3,4-tetrahydroisoquinoline-4-carboxamide] |  |  | dose dependent hypophosphorylation | Robust antiviral activities | stable e7 reduction | 4 | valid pdl-1 destabilizer | 72±7.7
